In the supplement of paper PMC10307832:

The cell lines below were run with CC(C)(C)c1cc(NC(=O)Nc2ccc(-c3cn4c(n3)sc3cc(OCCN5CCOCC5)ccc34)cc2)no1 [Quizartinib] + CC(=O)c1c(C)c2cnc(Nc3ccc(N4CCNCC4)cn3)nc2n(C2CCCC2)c1=O [Palbociclib] (partner 0.5 µM) (assay: relative viability (nuclei count vs DMSO), 5 days (fraction); higher = more cells survive). Settings: first compound 0.001 µM.
Summary of the method: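 Relative viability was taken as the ratio of nuclei in treated wells to nuclei in vehicle wells. Lung cancer cell lines in 1536-well plates received compounds by pin tool one day after seeding, either one drug alone or a fixed anchor-drug dose plus five library-drug doses (not always all listed) in √10 steps. Nuclei were counted on 4× images after 5 days of treatment, and values are medians of duplicate plates.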

Row | Cell Line | relative viability
1 | NCI-H1355 | 0.379
2 | H3255 | 0.318
3 | NCI-H647 | 0.371
4 | LCLC-97TM1 | 0.22
5 | LXF-289 | 0.52
6 | LU99A | 0.39
7 | NCI-H2023 | 0.298
8 | NCI-H2228 | 0.695
9 | NCI-H1437 | 0.298
10 | NCI-H1395 | 0.549
11 | NCI-H2009 | 0.202
12 | HCC-366 | 0.318
13 | NCI-H1915 | 0.507
14 | NCI-H2347 | 0.405
15 | LCLC-103H | 0.38
16 | NCI-H1734 | 0.277
17 | COR-L 105 | 0.395
18 | HCC-15 | 0.651
19 | HARA | 0.233

Same assay, conditions: first compound 0.003162 µM

Row | Cell Line | relative viability
20 | EKVX | 0.354
21 | EPLC-272H | 0.355
22 | NCI-H520 | 0.257
23 | NCI-H650 | 0.309
24 | RERF-LC-KJ | 1.05
25 | HCC-827 | 0.471
26 | NCI-H2087 | 0.225
27 | SK-MES-1 | 0.286
28 | NCI-H1651 | 0.479
29 | UMC-11 | 0.333
30 | NCI-H1355 | 0.378
31 | H3255 | 0.358
32 | NCI-H1792 | 0.654
33 | NCI-H647 | 0.348
34 | LCLC-97TM1 | 0.226
35 | LXF-289 | 0.603

Row | Cell Line | relative viability
36 | LU99A | 0.404
37 | NCI-H2023 | 0.312
38 | NCI-H2228 | 0.936
39 | NCI-H1437 | 0.288
40 | NCI-H1395 | 0.573
41 | NCI-H2009 | 0.237
42 | HCC-366 | 0.384
43 | NCI-H1915 | 0.433
44 | NCI-H2347 | 0.43
45 | LCLC-103H | 0.506
46 | ABC-1 | 0.71
47 | NCI-H1734 | 0.338
48 | HCC-78 | 0.476
49 | COR-L 105 | 0.397
50 | HCC-15 | 0.751
51 | HARA | 0.23

Same assay, conditions: first compound 0.01 µM

Row | Cell Line | relative viability
52 | EKVX | 0.397
53 | EPLC-272H | 0.301
54 | NCI-H520 | 0.251
55 | NCI-H650 | 0.361
56 | RERF-LC-KJ | 1.17
57 | NCI-H2087 | 0.316
58 | SK-MES-1 | 0.362
59 | NCI-H1651 | 0.54
60 | UMC-11 | 0.339
61 | NCI-H1355 | 0.415
62 | H3255 | 0.329
63 | NCI-H1792 | 0.702
64 | NCI-H647 | 0.413
65 | LCLC-97TM1 | 0.219
66 | LXF-289 | 0.649
67 | LU99A | 0.422
68 | NCI-H2023 | 0.467
69 | NCI-H2228 | 0.773
70 | NCI-H1437 | 0.32
71 | NCI-H1395 | 0.668
72 | NCI-H2009 | 0.273
73 | HCC-366 | 0.374
74 | NCI-H1915 | 0.482
75 | NCI-H2347 | 0.379
76 | LCLC-103H | 0.482
77 | ABC-1 | 0.842
78 | NCI-H1734 | 0.349
79 | HCC-78 | 0.494
